Test results as given in PubChem BioAssay (NCI).
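Results reflect a 48-hour exposure of cells in 96-well plates to compound at five concentrations. TGI is the concentration that stops growth completely.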

Key:
Test in all cases: NCI-60 cell line screen, 48 h
[1] = test system: 786-0 renal
[2] = test system: A498 renal
[3] = test system: A549 NSCLC
[4] = test system: ACHN renal
[5] = test system: BT-549 breast
[6] = test system: CAKI-1 renal
[7] = test system: CCRF-CEM leukemia
[8] = test system: COLO 205 colon
[9] = test system: DU-145 prostate
[10] = test system: EKVX NSCLC
[11] = test system: HCC-2998 colon
[12] = test system: HCT-116 colon
[13] = test system: HCT-15 colon
[14] = test system: HL-60(TB) leukemia
[15] = test system: HOP-62 NSCLC
[16] = test system: HOP-92 NSCLC
[17] = test system: HS 578T breast
[18] = test system: HT29 colon
[19] = test system: IGROV1 ovarian
[20] = test system: K-562 leukemia
[21] = test system: KM12 colon
[22] = test system: LOX IMVI melanoma
[23] = test system: M14 melanoma
[24] = test system: MALME-3M melanoma
[25] = test system: MCF7 breast
[26] = test system: MDA-MB-231 breast
[27] = test system: MDA-MB-435
[28] = test system: MDA-N
[29] = test system: MOLT-4 leukemia
[30] = test system: NCI-H226 lung
[31] = test system: NCI-H23 lung
[32] = test system: NCI-H460 lung
[33] = test system: NCI-H522 lung
[34] = test system: NCI/ADR-RES ovarian
[35] = test system: OVCAR-3 ovarian
[36] = test system: OVCAR-4 ovarian
[37] = test system: OVCAR-5 ovarian
[38] = test system: OVCAR-8 ovarian
[39] = test system: PC-3 prostate
[40] = test system: RPMI-8226 leukemia
[41] = test system: RXF 393 renal
[42] = test system: SF-268 CNS
[43] = test system: SF-295 CNS
[44] = test system: SF-539 CNS
[45] = test system: SK-MEL-2 melanoma
[46] = test system: SK-MEL-28 melanoma
[47] = test system: SK-MEL-5 melanoma
[48] = test system: SK-OV-3 ovarian
[49] = test system: SN12C renal
[50] = test system: SNB-19 CNS
[51] = test system: SNB-75 CNS
[52] = test system: SW-620 colon
[53] = test system: T-47D breast
[54] = test system: TK-10 renal
[55] = test system: U251 CNS
[56] = test system: UACC-257 melanoma
[57] = test system: UACC-62 melanoma
[58] = test system: UO-31 renal
[59] = test system: SR leukemia

## CCOC(=O)Cc1nc2c(=O)[nH]cnc2n1C1OC(COC(C)=O)C(OC(C)=O)C1OC(C)=O (stereo unspecified)
[1]
  TGI: > 100 µM
[2]
  TGI: > 100 µM
[3]
  TGI: > 100 µM
[4]
  TGI: > 100 µM
[5]
  TGI: > 100 µM
[6]
  TGI: > 100 µM
[7]
  TGI: > 100 µM
[8]
  TGI: > 100 µM
[9]
  TGI: > 100 µM
[10]
  TGI: > 100 µM
[11]
  TGI: > 100 µM
[12]
  TGI: > 100 µM
[13]
  TGI: > 100 µM
[14]
  TGI: > 100 µM
[15]
  TGI: > 100 µM
[16]
  TGI: > 100 µM
[17]
  TGI: > 100 µM
[18]
  TGI: > 100 µM
[19]
  TGI: > 100 µM
[20]
  TGI: > 100 µM
[21]
  TGI: > 100 µM
[22]
  TGI: > 100 µM
[23]
  TGI: > 100 µM
[24]
  TGI: > 100 µM
[25]
  TGI: > 100 µM
[26]
  TGI: > 100 µM
[27]
  TGI: > 100 µM
[28]
  TGI: > 100 µM
[29]
  TGI: > 100 µM
[30]
  TGI: > 100 µM
[31]
  TGI: > 100 µM
[32]
  TGI: > 100 µM
[33]
  TGI: > 100 µM
[34]
  TGI: > 100 µM
[35]
  TGI: > 100 µM
[36]
  TGI: > 100 µM
[37]
  TGI: > 100 µM
[38]
  TGI: > 100 µM
[39]
  TGI: > 100 µM
[40]
  TGI: > 100 µM
[41]
  TGI: > 100 µM
[42]
  TGI: > 100 µM
[43]
  TGI: > 100 µM
[44]
  TGI: > 100 µM
[45]
  TGI: > 100 µM
[46]
  TGI: > 100 µM
[47]
  TGI: > 100 µM
[48]
  TGI: > 100 µM
[49]
  TGI: > 100 µM
[50]
  TGI: > 100 µM
[51]
  TGI: > 100 µM
[52]
  TGI: > 100 µM
[53]
  TGI: > 100 µM
[54]
  TGI: > 100 µM
[55]
  TGI: > 100 µM
[56]
  TGI: > 100 µM
[57]
  TGI: > 100 µM
[58]
  TGI: > 100 µM

## Cc1cccc(N2CCN(S(=O)(=O)c3ccc(Cl)cc3)C2=N)c1C
[1]
  TGI: > 100 µM
[2]
  TGI: > 100 µM
[3]
  TGI: > 100 µM
[4]
  TGI: > 100 µM
[5]
  TGI: > 100 µM
[6]
  TGI: > 100 µM
[8]
  TGI: > 100 µM
[9]
  TGI: > 100 µM
[12]
  TGI: > 100 µM
[18]
  TGI: > 100 µM
[19]
  TGI: 99.3 µM
[20]
  TGI: > 100 µM
[21]
  TGI: > 100 µM
[23]
  TGI: > 100 µM
[25]
  TGI: > 100 µM
[26]
  TGI: > 100 µM
[27]
  TGI: > 100 µM
[28]
  TGI: > 100 µM
[29]
  TGI: > 100 µM
[30]
  TGI: > 100 µM
[31]
  TGI: > 100 µM
[34]
  TGI: > 100 µM
[37]
  TGI: > 100 µM
[38]
  TGI: > 100 µM
[40]
  TGI: > 100 µM
[41]
  TGI: > 100 µM
[42]
  TGI: > 100 µM
[43]
  TGI: > 100 µM
[44]
  TGI: > 100 µM
[46]
  TGI: > 100 µM
[47]
  TGI: > 100 µM
[48]
  TGI: > 100 µM
[49]
  TGI: > 100 µM
[50]
  TGI: > 100 µM
[51]
  TGI: > 100 µM
[59]
  TGI: > 100 µM
[52]
  TGI: > 100 µM
[53]
  TGI: > 100 µM
[54]
  TGI: > 100 µM
[55]
  TGI: > 100 µM
[56]
  TGI: > 100 µM
[57]
  TGI: > 100 µM
[58]
  TGI: > 100 µM
